From PMC7957705 (Molecules, 2021)
Where two headings read alike, the source gives them in different places. Values belong to the compound of their own block, whether it stands above or below them. Where a SMILES comes first, the peptide text is derived from it. Bridges are numbered along the chain shown (N, C = ends). Triazole bridges read from a SMILES are 1,4-linked. Where no end group is shown, it is not given here. [ ]: non-standard residue; d: D form. The star is where a group is joined. Benzoyl(4-guanidino) = N=C(N)Nc1ccc(C(=O)*)cc1; Gua = N-terminal guanidino group, N=C(N)*; Pro(4S-NH2) = N[C@@H]1CN[C@H](C(=O)O)C1; Orn(N3) = [N-]=[N+]=NCCC[C@H](N)C(=O)O; Aha = [N-]=[N+]=NCC[C@H](N)C(=O)O; Cav = NC(N)=NOCC[C@H](N)C(=O)O; Hpra = C#CCC[C@H](N)C(=O)O; hCys = N[C@@H](CCS)C(=O)O; Orn = NCCC[C@H](N)C(=O)O; Pra = C#CC[C@H](N)C(=O)O

How the values were obtained:
[1] = format: in vitro ADME; settings: plasma
Procedure: Plasmas from 3 species (including commercially available human healthy donors) were adjusted to pH 7.4 if necessary. Incubations were performed at a concentration of 1 µM of the compound at 37 °C (in the presence of a final concentration of DMSO of 2.5% v/v. The incubations were stopped at 0, 15, 30, 60 and 120 min by methanol. Each time point was run in sextuplets. The sampling plates were then centrifuged (2500 rpm, 45 min, 4 °C) and the supernatants pooled. Samples were analyzed for parent compound by LC-MS/MS. The percentage of parent compound remaining at each time point relative to the 0 min sample is then calculated from LC-MS/MS peak area ratios. Then, the stability in plasma was evaluated by incubating human, rat or mouse plasma with the compound(s) as follows: the product (0.1 µM in TRIS buffer pH 7.4 0.1% BSA) was incubated with the plasma at 37 °C. The disappearance of the product was measured at 15, 45, 120, 240 and 300 min by mass spectrometry. Incubations were carried out in a robot Star (Hamilton France, Villebon-sur-Yvette, France). At each sampling time, 50 µL of the reaction medium was removed and diluted with 100 µL of acetonitrile. After centrifugation (20 min at + 4 °C, 4000 rpm), 75 µL of the supernatants was transferred into a 384 well injection plate. Ten microliters were injected onto UPLC coupled with a XEVO TQS mass spectrometer system (Waters, Milford, MA, USA). The unchanged product is quantified using a reference sample (0.1 µM) prepared during the incubation process. A second reference sample at 0.01 µM is prepared in the same conditions to verify the linearity of the detection method. The peak height (or area) is measured to calculate the half-life of the compound.

human MCH-R1 [2] = molecular target: T1, human MCH-R1 (Homo sapiens, UniProt Q99705); test: MCH-induced cytosolic Ca2+ ion mobilization, antagonist effect; format: cell-based; settings: antagonism of MCH-induced cytosolic Ca2+ mobilization; read-out: Ki (functionality, antagonism at MCH-R1)
T1 construct: expressed in transfected cells
Procedure: The functional assay was run onto cells expressing the hMCH-R1 receptor, as described in Wang et al.. In brief, the cells are suspended in DMEM buffer (Invitrogen), then distributed in microplates at a density of 4.104 cells/well. The fluorescent probe (Fluo4 Direct, Invitrogen) mixed with probenecid in Hanks’ Balanced Salt solution (HBSS) (Invitrogen) complemented with 20 mM HEPES (Invitrogen) (pH 7.4) is then added into each well and equilibrated with the cells for 60 min at 37 °C, then 15 min at 22 °C. Then, the assay plates are positioned in a microplate reader (CellLux, PerkinElmer) which is used for the addition of the test compound, reference agonist or HBSS buffer (basal control), and the measurements of changes in fluorescence intensity, which varies proportionally to the free cytosolic Ca^2+ ion concentration. For stimulated control measurements, MCH at 300 nM is added in separate assay wells. The results are expressed as a percentage of the control response to 300 nM MCH. The standard reference agonist is MCH, which is tested in each experiment at several concentrations to generate a concentration-response curve from which its EC50 value is calculated. For the antagonist effect, the results are expressed as a percentage inhibition of the control response to 30 nM MCH, which was added to all tested wells and controls 5 min after the candidate products.

human MCH-R1 [3] = molecular target: T1, human MCH-R1; test: Binding displacement of [125I]-[Phe13,Tyr19]-MCH at membranes expressing human MCH-R1; settings: Table 1, S-S bridge pseudopeptides; 2 × 2 independent duplicates; read-out: Km
Procedure: Stable cell lines were obligatory for all receptor programs. We cloned the human receptor and established the cell line as previously described. In brief, HEK293 (HEK) cells were grown in Dulbecco’s Modified Eagle medium (DMEM) supplemented with 10% fetal calf serum, 2 mM glutamine, 100 IU/mL penicillin and […] streptomycin. They were seeded at 5 × 10^6 cells in T75 cm^2 culture flasks. One day later, they were transfected with […] of the pcDNA3.1 (Invitrogen, Groningen, The Netherlands) containing the human MCH-R1 using lipofectamine (Life Technologies, Cergy Pontoise, France), as previously described. One day later, cells were trypsinized, resuspended in a complete DMEM medium containing […] of geneticin and seeded at different dilutions in 96-well plates which were kept for 2 to 3 weeks in a humidified CO2 incubator. At the end of the selection period, isolated clones were picked up, amplified, and further characterized by cyclic AMP experiments. For each cell line, one positive clone was subcloned before being used for all of the cyclic AMP, [^35S]-GTPγS and receptor binding experiments necessary to characterize them. The stable HEK293 cell line expressing the human MCH-R1 was HEK-hMCH-R1.
Membrane preparations were classically made as previously described. In brief, the HEK-hMCH-R cell line was grown to confluency, harvested in PBS buffer containing 2 mM EDTA and centrifuged at 10,000× g for 5 min (4°C). The resulting pellet was suspended in 20 mM Hepes buffer (pH 7.5), containing 5 mM EGTA and homogenized using a Kinematica polytron. The homogenate was then centrifuged (95,000× g, 30 min, 4 °C) and the resulting pellet was suspended in 50 mM HEPES buffer (pH 7.5), containing 10 mM MgCl2 and 2 mM EGTA. Aliquots of membrane preparations were stored at −80 °C until use. Binding has been described in numerous publications and the test was based on Mac Donald et al.’s description. […] Nonspecific binding is determined in the presence of 0.1 μM MCH. […] The filters are dried and then counted for radioactivity in a scintillation counter (Topcount, Packard) using a scintillation cocktail (Microscint 0, Packard). The results are expressed as percentage inhibition of the control radioligand specific binding. The standard reference compound is MCH, which was tested in each experiment at 8 concentrations to obtain a competition curve from which its IC50 is calculated. The high level of assay robustness and reproducibility of each control monitored over several decades (internal data base, Eurofins) and included in every assay ensure results’ reliability even when performed only twice. […]

human plasma = settings: 37 °C, up to 300 min

T1 sequence (Q99705 whole entry): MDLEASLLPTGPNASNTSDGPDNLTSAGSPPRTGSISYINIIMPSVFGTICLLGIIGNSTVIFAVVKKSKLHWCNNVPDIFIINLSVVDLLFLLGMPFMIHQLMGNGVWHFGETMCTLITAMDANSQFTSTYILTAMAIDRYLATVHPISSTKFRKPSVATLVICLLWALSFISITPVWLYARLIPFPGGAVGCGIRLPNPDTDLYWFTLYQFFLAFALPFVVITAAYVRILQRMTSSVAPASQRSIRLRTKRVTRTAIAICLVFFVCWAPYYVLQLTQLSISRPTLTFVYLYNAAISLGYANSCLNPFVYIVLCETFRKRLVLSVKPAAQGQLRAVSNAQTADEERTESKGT

Compound: CSCC[C@@H]1NC(=O)[C@@H](NC(=O)c2ccc(NC(=N)N)cc2)CCC(=O)NCCC[C@@H](C(=O)N[C@@H](Cc2c[nH]c3ccccc23)C(=O)O)NC(=O)[C@@H]2CCCN2C(=O)[C@H](CCCNC(=N)N)NC(=O)[C@H](C(C)C)NC(=O)[C@H](CCCNC(=N)N)NC(=O)[C@H](CC(C)C)NC1=O [GPS12744] ({Benzoyl(4-guanidino)}-EMLRVRP[Orn]W-OH; lactam 1-8)
- half-life ([1]; human): ≥ 5 h
- half-life ([1]; mouse): 0.433 ± 0.05 h
- half-life ([1]; rat): 2.38 ± 0.2 h

Compound: CCSCC[C@@H]1NC(=O)[C@@H](NC(=O)c2ccc(NC(=N)N)cc2)CCC(=O)NCCC[C@@H](C(=O)N[C@@H](Cc2c[nH]c3ccccc23)C(=O)O)NC(=O)[C@@H]2CCCN2C(=O)[C@H](CCCNC(=N)N)NC(=O)[C@H](C(C)C)NC(=O)[C@H](CCCNC(=N)N)NC(=O)[C@H](CC(C)C)NC1=O [GPS13663] ({Benzoyl(4-guanidino)}-E[hCys](Et)LRVRP[Orn]W-OH; lactam 1-8)
- half-life ([1]; human): ≥ 5 h
- half-life ([1]; mouse): 0.317 ± 0.0167 h
- half-life ([1]; rat): 1.57 ± 0.05 h

Compound: CSCC[C@H](NC(=O)[C@H](CCC(=O)O)NC(=O)c1ccc(NC(=N)N)cc1)C(=O)N[C@@H](CC(C)C)C(=O)N[C@@H](CCCNC(=N)N)C(=O)N[C@H](C(=O)N[C@@H](CCCNC(=N)N)C(=O)N1CCC[C@H]1C(=O)N[C@@H](CCCN)C(=O)N[C@@H](Cc1c[nH]c2ccccc12)C(=O)O)C(C)C [GPS13669] ({Benzoyl(4-guanidino)}-EMLRVRP[Orn]W-OH)
- Ki (human MCH-R1 [2]): 300 nM

Compound: CCSCC[C@@H]1NC(=O)[C@@H](NC(=O)c2ccc(NC(=N)N)cc2)Cc2cn(nn2)CC[C@@H](C(=O)N[C@@H](Cc2c[nH]c3ccccc23)C(=O)O)NC(=O)[C@@H]2CCCN2C(=O)[C@H](CCCNC(=N)N)NC(=O)[C@H](C(C)C)NC(=O)[C@H](CCCNC(=N)N)NC(=O)[C@H](CC(C)C)NC1=O [GPS13671] ({Benzoyl(4-guanidino)}-[Pra][hCys](Et)LRVRP[Aha]W-OH; triazole 1-8)
- Ki (human MCH-R1 [2]): 8 nM

Compound: CSCC[C@@H]1NC(=O)[C@@H](NC(=O)c2ccc(NC(=N)N)cc2)CCC(=O)NCCC[C@@H](C(=O)N[C@@H](Cc2c[nH]c3ccccc23)C(=O)O)NC(=O)[C@@H]2CCCN2C(=O)[C@H](CCON=C(N)N)NC(=O)[C@H](C(C)C)NC(=O)[C@H](CCCNC(=N)N)NC(=O)[C@H](CC(C)C)NC1=O [GPS13683] ({Benzoyl(4-guanidino)}-EMLRV[Cav]P[Orn]W-OH; lactam 1-8)
- Ki (human MCH-R1 [2]): 0.15 nM

Compound: GPS11373: S-S bridge: Gua-Cys-Met-Leu-Arg-Val-Arg-Pro-Cys-Trp (Gua-CMLRVRPCW; disulfide 1-8 (inferred))
- binding affinity constant (human MCH-R1 [3]): 100 nM

Compound: Gua-Glu-Ethionine-Leu-Arg-Val-Arg-Pro-Orn-Trp
- not cleaved (human plasma): not metabolized at all, 100% of the initial dose found at 300 (5 h)

Compound: Gua-Glu-Met-Leu-Arg-Val-Arg-4-NH2-Pro-Orn-Trp
- not cleaved (human plasma): not metabolized at all, 100% of the initial dose found at 300 (5 h)

Compound: Gua-Glu-Met-Leu-Arg-Val-Arg-Pro-Orn-Trp
- not cleaved (human plasma): not metabolized at all, 100% of the initial dose found at 300 (5 h)

Next, values leading:

- half-life ([1]; human): ≥ 5 h
- half-life ([1]; mouse): 0.433 ± 0.0167 h
- half-life ([1]; rat): 2.25 ± 0.15 h
Compound: CSCC[C@@H]1NC(=O)[C@@H](NC(=O)c2ccc(NC(=N)N)cc2)CCC(=O)NCCC[C@@H](C(=O)N[C@@H](Cc2c[nH]c3ccccc23)C(=O)O)NC(=O)[C@@H]2C[C@H](N)CN2C(=O)[C@H](CCCNC(=N)N)NC(=O)[C@H](C(C)C)NC(=O)[C@H](CCCNC(=N)N)NC(=O)[C@H](CC(C)C)NC1=O [GPS13684] ({Benzoyl(4-guanidino)}-EMLRVR[Pro(4S-NH2)][Orn]W-OH; lactam 1-8)

- Ki (human MCH-R1 [2]): 0.13 nM
Compound: CSCC[C@@H]1NC(=O)[C@@H](NC(=O)c2ccc(NC(=N)N)cc2)CCC(=O)NCCC[C@@H](C(=O)N[C@@H](Cc2c[nH]c3ccccc23)C(=O)O)NC(=O)[C@@H]2CCCN2C(=O)[C@H](CCCNC(=N)N)NC(=O)[C@H](Cc2ccc(O)cc2)NC(=O)[C@H](C(C)C)NC(=O)[C@H](CCCNC(=N)N)NC(=O)[C@H](CC(C)C)NC1=O [GPS13695] ({Benzoyl(4-guanidino)}-EMLRVYRP[Orn]W-OH; lactam 1-9)

- Ki (human MCH-R1 [2]): 0.022 nM
Compound: CSCC[C@@H]1NC(=O)[C@@H](NC(=O)c2ccc(NC(=N)N)cc2)CCn2cc(nn2)CC[C@@H](C(=O)N[C@@H](Cc2c[nH]c3ccccc23)C(=O)O)NC(=O)[C@@H]2CCCN2C(=O)[C@H](CCCNC(=N)N)NC(=O)[C@H](C(C)C)NC(=O)[C@H](CCCNC(=N)N)NC(=O)[C@H](CC(C)C)NC1=O [GPS14517] ({Benzoyl(4-guanidino)}-[Aha]MLRVRP[Hpra]W-OH; triazole 1-8)

- Ki (human MCH-R1 [2]): 0.027 nM
Compound: CSCC[C@@H]1NC(=O)[C@@H](NC(=O)c2ccc(NC(=N)N)cc2)Cc2cn(nn2)CCC[C@@H](C(=O)N[C@@H](Cc2c[nH]c3ccccc23)C(=O)O)NC(=O)[C@@H]2CCCN2C(=O)[C@H](CCCNC(=N)N)NC(=O)[C@H](C(C)C)NC(=O)[C@H](CCCNC(=N)N)NC(=O)[C@H](CC(C)C)NC1=O [GPS14518] ({Benzoyl(4-guanidino)}-[Pra]MLRVRP[Orn(N3)]W-OH; triazole 1-8)

- Ki (human MCH-R1 [2]): 0.43 nM
Compound: CSCC[C@@H]1NC(=O)[C@@H](NC(=O)c2ccc(NC(=N)N)cc2)CCCn2cc(nn2)C[C@@H](C(=O)N[C@@H](Cc2c[nH]c3ccccc23)C(=O)O)NC(=O)[C@@H]2CCCN2C(=O)[C@H](CCCNC(=N)N)NC(=O)[C@H](C(C)C)NC(=O)[C@H](CCCNC(=N)N)NC(=O)[C@H](CC(C)C)NC1=O [GPS14519] ({Benzoyl(4-guanidino)}-[Orn(N3)]MLRVRP[Pra]W-OH; triazole 1-8)
